In one data set the target is T1, TMPRSS2 (Homo sapiens, UniProt O15393).
T1 construct: purchased Cusabio
Kind of data set: fluorometric enzyme inhibition assay, TMPRSS2 (Boc-Gln-Ala-Arg-AMC). Format: biochemical. The following applies: for Ki: from IC50 by Cheng-Prusoff, n.a. = not active, <80% inhibition at 20 µM. On the procedure:
The inhibitory activity of the synthesized compounds towards the respective main- and off-target proteases was measured via fluorometric and colorimetric assays. Thus, fluorogenic AMC- or colorimetric pNA-based substrates with a peptide sequence suitable for the tested protease were utilized (see Supplementary Figure S2). At first, the compounds were screened against […] proteases (uPA, TMPRSS2, matriptase, tPA, thrombin, factor Xa) at 20 µM, and a cut-off value of 80% inhibition at this concentration was set, for the differentiation between nonactive (n.a.) and active inhibitors. Due to the reversible inhibition mechanism of the ketobenzothiazole derivates, the IC50 values were determined with Graphpad Prism 9, and afterwards converted to the corresponding Ki values for an adequate comparison between the inhibitory activities of the compounds toward all tested proteases. The Ki values were calculated using the Cheng–Prusoff equation [43].
Fluorometric inhibition assays
The inhibitory activities of the compounds against the proteases were determined by enzyme inhibition assays with fluorogenic or colorimetry-based substrates. The fluorescence, caused by cleaved AMC from the fluorogenic substrates (uPA, matriptase, TMPRSS2, thrombin), was measured in white flat-bottom 96-well plates from Greiner Bio-One using a Tecan Infinite F200 Pro plate reader. The absorption, caused by cleaved pNA from colorimetric substrates (factor Xa and tPA), was measured in transparent flat-bottom 96-well plates from Greiner Bio-One using a Tecan Spark 10M plate reader. All measurements with the main-target proteases (uPA and TMRPSS2) were performed as triplicates and with the off-target proteases (matriptase, factor Xa, tPA, thrombin) as duplicates. The substrates and the compounds were prepared as stock solutions in DMSO. Each well contained a total volume of 200 µL, consisting of 185 µL buffer, 5 µL inhibitor in DMSO or pure DMSO as negative control, 5 µL substrate in DMSO and 5 µL enzyme solution in buffer. Dilution series were prepared for the determination of the inhibition constants. The fluorescence signal and absorbance were measured every 30 s for 10 min at 25 or 37 °C with the corresponding excitation/emission (λex = 380 nm / λem = 460 nm) and absorbance (λabs = 405 nm) wavelengths, depending on the targeted protease. IC50 values for the reversible inhibitors were calculated with Graphpad Prism 9 by fitting the remaining enzymatic activity to the four parameter IC50 equation with Y [%] as the residual enzyme activity , Ymax as the maximum value of the dose response curve at inhibitor concentrations [I] = 0 µM, Ymin as the minimum value at high inhibitor concentrations and s as the hill coefficient.[1] The fluorescence progress curves and sigmoidal dose-response curve for inhibition of uPa by compound 38 is shown exemplary in Figure S2. […]
Due to the dependence of the IC50 value on the substrate affinity and concentration, the Ki values were calculated with the Cheng-Prusoff equation, using the final substrate concentration [S] and the Michaelis-Menten constant KM, (2) for appropriate comparison of the inhibitory activities to the other enzymes and inhibitors.[1]
KM values were determined by fitting to the Michaelis-Menten equation using Graphpad Prism 9 with v [ΔF/min] as the substrate hydrolysis rate, vmax as the maximum slope of the dose-response curve, and the substrate [S] concentration.[1] The different substrates were serially diluted in DMSO. The measurement was done in analogy to the determination of the inhibitory activity, but with 5 µL pure DMSO instead of inhibitor solution. […]
The following buffers and substrates were used for the respective assays: uPA (50 mM Tris HCl pH = 7.9, 150 mM […]
TMPRSS2 (25 mM Tris HCl pH = 8.0, 150 mM NaCl, 5 mM CaCl2, 0.001% TX-100, 100 µM Boc-Gln-Ala-Arg-AMC (KM: 68.63 ± 6.64 µM), 25 °C, 3 nM TMPRSS2)[3]; matriptase (50 mM Tris HCl pH = 8.0, 150 mM NaCl, 5 mM CaCl2, […]

Data set [1] can be described thus: Parallel Artificial Membrane Permeation Assay (PAMPA). In kind it is in vitro ADME. The following applies: TRIS 50 mM pH 7.4, 5% DMSO, 7 h at room temperature. From the text:
Following the envisioned applications of the presented inhibitors as drug leads for the treatment of cancer or viral infections, cell permeability is an important factor in the characterization process. […] However, in the organismic contexts of oral bioavailability (facilitated application) and biodistribution (reaching target tissue), adequate permeation is an important quality. To assess this characteristic, PAMPA was used as a suitable model for passive permeation.
Figure S5: Stability analyses of a representative set of inhibitors. The depictions consist of compound structure and number, then analysis at t0, then analysis after 7 h at room temperature, then analysis after 12 h at 37 °C. […]
Incubation setup was assembled and left for 7 h at room temperature. Reference solutions were prepared by simply mixing the indicated volumes of donor and acceptor solutions at the start of the incubation period and analyzed later with the acceptor solutions. […]
Measurement setup for spectroscopy consisted of UV-transparent measurement plate (Greiner UV-Star®, 655801), Tecan Spark 10M® well plate reader, 200 µL sample volume, λ = 200–650 nm. […]
Measurement setup for LC/MS consisted of Agilent 1100 series HPLC system coupled to an Agilent 1100 series LC/MSD Trap with electron spray ionization (ESI). […] Retention time and mass spectrum recorded in positive ionization mode were used to assign species. […]
A general note: PAMPA measures passive passage across an artificial lipid membrane.

We go through two molecules from paper PMC10855164, “Ligand-Based Design of Selective Peptidomimetic uPA and TMPRSS2 Inhibitors with Arg Bioisosteres” (International Journal of Molecular Sciences, 2024).

The Ki is a dissociation constant, usually derived from enzyme kinetics or from competition with a known ligand.

T1 sequence (O15393 whole entry): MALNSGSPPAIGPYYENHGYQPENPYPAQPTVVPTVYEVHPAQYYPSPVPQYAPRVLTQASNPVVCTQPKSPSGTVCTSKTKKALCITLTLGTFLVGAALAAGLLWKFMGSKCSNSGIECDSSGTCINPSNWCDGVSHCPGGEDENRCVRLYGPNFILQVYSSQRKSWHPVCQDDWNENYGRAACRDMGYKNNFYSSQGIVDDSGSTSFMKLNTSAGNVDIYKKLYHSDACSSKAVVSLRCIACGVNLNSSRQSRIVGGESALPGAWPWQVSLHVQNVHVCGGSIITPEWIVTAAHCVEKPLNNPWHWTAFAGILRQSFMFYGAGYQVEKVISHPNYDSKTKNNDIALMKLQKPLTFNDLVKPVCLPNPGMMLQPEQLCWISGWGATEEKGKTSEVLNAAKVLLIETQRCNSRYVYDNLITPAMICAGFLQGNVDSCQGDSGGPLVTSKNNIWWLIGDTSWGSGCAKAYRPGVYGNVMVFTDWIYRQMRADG

For `CC(=O)N[C@@H](Cc1ccccc1)C(=O)N[C@@H](Cc1ccc(NC(=N)N)cc1)C(=O)c1nc2ccccc2s1` [Compound 33], the inhibition constant (Ki) on TMPRSS2 came to 5 ± 2 nM. Moreover, the “PAMPA permeability Pe” value in data set [1] is recorded as “not enough to exert measurable permeability”.
Take `CC(=O)NCC(=O)NC(C(=O)NC(C)C(=O)NC(CC1CCC(NC(=N)N)CC1)C(=O)c1nc2ccccc2s1)C(C)O` (centres unmarked) [Compound 38]: the Ki on TMPRSS2 came out at 73 ± 16 nM. The “Selectivity index [SI] TMPRSS2” value at TMPRSS2 (quotient Ki TMPRSS2 / Ki uPA) is reported as 1.8. The Papp at 7 h in data set [1] (PAMPA, read-out: PAMPA permeability Pe) was below 1 ×10⁻⁶ cm/s.
